Results as given in the Bradley open melting point set (2014).
Values joined by “and” are separate entries in the source; they are usually repeats but may differ in a detail not shown here. Equal entries are not always repeated.

For `Cc1ccc(-c2ccc(/C=C3\N=C(c4ccccc4)OC3=O)o2)cc1`, the melting point was 150 °C.
Compound `IC(I)I` [Iodoform] has a melting point of 122 °C.
`CS(=O)(=O)OCCCCOS(C)(=O)=O` [busulfan] showed a melting point of 116 °C.
Work on `O=C=N/c1cc(ccc1C)N=C=O` [2,4-Diisocyanato-1-methylbenzene] yielded a melting point of 20.5 °C.
With `O=[N+]([O-])c1cc[n+]([O-])cc1` [4-nitropyridine n-oxide] the melting point was 161 °C.
`Cc1cccc(C(=O)CC#N)c1` [m-toluoylacetonitrile] gave a melting point of 73 °C.
Compound `CN(C)c1cccc(O)c1` [3-(Dimethylamino)phenol] has a melting point of 83 °C.
With `COc1ccc(OC)c(C=O)c1` [2,5-dimethoxybenzaldehyde] the melting point was 52 °C.
In the case of `CCCC(=O)OCSc1ncnc2c1ncn2COC(=O)CCC` [S6,9-Bis(butanoyloxymethyl)-6-mercaptopurine], the melting point is reported as 69 °C.
Work on `OB(O)c1cc2ccccc2s1` [benzo[b]thiophene-2-boronic acid] yielded a melting point of 255 °C.
`CCN(CC)c1ccc(C=NO)cc1` [4-diethylaminobenzaldoxime] showed a melting point of 96 °C.
For `O=C2/N=C(\Nc1n(cnc12)COCCO)N` [acyclovir], the melting point was 257 °C.
With `c1ccc2c(c1)ccc1ccccc12` [phenanthrene] the melting point was 100 °C.
In the case of `CC(C)(F)C(Br)C(=O)O` (configuration not stated) [2-bromo-3-fluoroisovaleric acid], the melting point is reported as 54 °C.
With `NC(=O)c1ccccc1O` [Salicylamide] the melting point was 142 °C.
With `CC(=O)OC1CCC2(C)C3CCC4(C)C(=O)CCC4C3C(=O)CC2(C)C1` (configuration not stated) [5-methyl-7,17-dioxoandrostan-3-yl acetate] the melting point was 155 °C.
`c1ccc([C@H]2CN3CCSC3=N2)cc1` [Levamisole] gave a melting point of 264 °C.
For `C=CC1CC=CCC1` (configuration not stated) [4-Vinylcyclohexene], the melting point was -101 °C.
Compound `O=C(NC1CCC(O)CC1)OCc1ccccc1` (configuration not stated) [4-(benzyloxycarbonylamino)cyclohexanol] has a melting point of 163 °C.
In the case of `COc1ccc2c3c1O[C@H]1[C@@H](O)C=C[C@H]4[C@@H](C2)N(C)CC[C@@]341` [codeine], the melting point is reported as 158 °C.
Compound `O=C(O)C(O)C(O)C(=O)O` (configuration not stated) [tartaric acid] has a melting point of 147 °C.
`O=C(O)c1cc(Cl)ccc1O` [5-chlorosalicylic acid] showed a melting point of 174 °C.
`N#C/C=C/C#N` [(2E)-But-2-enedinitrile] gave a melting point of 97 °C.
`CC1=CC(=O)OC1=O` [citraconic anhydride] showed a melting point of 8 °C.
With `O=C(O)CCc1cccc(O)c1` [3-(3-hydroxyphenyl)propionic acid] the melting point was 112 °C.
`O=C(O)/C=C/c1ccccc1` [(2E)-3-Phenylacrylic acid] gave a melting point of 133 °C.
For `CC(=O)OC1CCC2(C)C(CCC3C2CCC2(C)C3CCC2(O)C#Cc2ccccc2)C1` (configuration not stated) [17-hydroxy-21-phenylpregn-20-yn-3-yl acetate], the melting point was 166 °C.
`CCCc1ccccc1` [Propylbenzene] showed a melting point of -99 °C.
Work on `OCCCCCO` [1,5-pentanediol] yielded a melting point of -16 °C.
With `CN(C)C(=O)Nc1ccc(Cl)c(Cl)c1` [3-(3,4-dichlorophenyl)-1,1-dimethylurea] the melting point was 158 °C.
For `CC(C)C(=O)c1ccccc1` [isobutyrophenone], the melting point was 1 °C.
Work on `CCCCCC(=O)OC` [methyl hexanoate] yielded a melting point of -71 °C.
In the case of `ClC(Cl)Cl` [chloroform], the melting point is reported as -63 °C.
`O=C(O)c1c(O)cccc1F` [6-fluorosalicylic acid] showed a melting point of 160 °C.
Work on `CC(=O)OCC1OC(OCc2ccccc2)C(OC(C)=O)C(OC(C)=O)C1OC(C)=O` (configuration not stated) yielded a melting point of 98 °C.
In the case of `CC(Cc1ccccc1)c1ccccc1` (configuration not stated) [1,2-diphenylpropane], the melting point is reported as 0 °C.
Work on `COc1cccc2c1C(=O)c1c(O)c3c(c(O)c1C2=O)C[C@@](O)(C(=O)CO)C[C@@H]3O[C@H]1C[C@H](N)[C@H](O)[C@H](C)O1` [Doxorubicin] yielded a melting point of 204 °C.
With `C[C@]12CC[C@@H]3c4ccc(O)cc4CC[C@H]3[C@@H]1CC[C@@H]2O` [estradiol] the melting point was 176 °C and 178 °C.
In the case of `CC12CCC(C(=O)/C(=C\c3ccccc3[N+](=O)[O-])C1=O)C2(C)C` (configuration not stated), the melting point is reported as 141 °C.
For `COc1cc(B(O)O)ccc1C` [3-methoxy-4-methylbenzeneboronic acid], the melting point was 193 °C.
For `O=[N+]([O-])c1cc([N+](=O)[O-])c2ccccc2c1O` [2,4-dinitro-1-naphthol], the melting point was 132 °C.
Work on `COc1ccc(OC)c(S(=O)(=O)Cl)c1` [2,5-dimethoxybenzenesulfonyl chloride] yielded a melting point of 114 °C.
For `O=CNC1C/C=C/CC(NC=O)C/C=C/C1` (configuration not stated) [N,N'-(3E,8E)-cyclodeca-3,8-diene-1,6-diyldiformamide], the melting point was 234 °C.
Compound `O=C(CBr)c1cccs1` [2-(bromoacetyl)thiophene] has a melting point of 31 °C.
For `Nc1ncc(Br)cn1` [2-amino-5-bromopyrimidine], the melting point was 233 °C.
For `N#Cc1ccc(CO)cc1` [p-cyano_benzyl_alcohol], the melting point was 42 °C.
`Cc1cc2[nH]c(C)cc(=O)n2n1` [2,5-dimethylpyrazolo[1,5-a]pyrimidin-7(4h)-one] showed a melting point of 253 °C.
In the case of `O=C(O)COc1ccc(CO)cc1` [4-(hydroxymethyl)phenoxyacetic acid], the melting point is reported as 112 °C.
`CN1Cc2c(N)cccc2C(c2ccccc2)C1` (configuration not stated) [Nomifensine] showed a melting point of 180 °C.
Work on `Cc1ccc(C(=O)c2ccccc2C(=O)O)cc1` [2-(4-toluoyl)benzoic acid] yielded a melting point of 138 °C.
In the case of `O=C1Nc2c(Br)cccc2C1=O` [7-bromoisatin], the melting point is reported as 197 °C.
Compound `CCCCCCCCCCCCC` [tridecane] has a melting point of -5 °C.
Work on `CC(=O)Nc1ccccc1C(=O)O` [2-acetamidobenzoic acid] yielded a melting point of 186 °C.
With `CCCCCCCCCCCCS` [1-dodecanethiol] the melting point was -7 °C.
`CCCCCCCC/C=C/CCCCCCCC(=O)O` [elaidic acid] showed a melting point of 43 °C.
Compound `CCCCC(CC)CN` (configuration not stated) [2-ethylhexylamine] has a melting point of -76 °C.
For `ClC(Cl)Cl` [Chloroform], the melting point was -63 °C.
Work on `Oc1ccccc1Cl` [o-chlorophenol] yielded a melting point of 8 °C.
Work on `O=C(Oc1ccccc1C(=O)O)c1ccccc1O` [salicylsalicylic acid] yielded a melting point of 135 °C.
In the case of `CCCC(C)(COC(N)=O)COC(N)=O` [2-[(Carbamoyloxy)methyl]-2-methylpentyl carbamate], the melting point is reported as 105 °C.
With `Cc1ccc(O)c(-c2ccno2)c1` [2-(5-isoxazolyl)-4-methylphenol] the melting point was 176 °C.
`Cc1cc(Br)cnc1N` [2-amino-5-bromo-3-methylpyridine] showed a melting point of 92 °C.
Compound `CC(C)CC(=O)O` [isovaleric acid] has a melting point of -29.3 °C.
Compound `CCOC(=O)/C(C(N)=S)=C1/NN=C(c2ccc(Cl)cc2)O1` has a melting point of 176 °C.
Work on `Cc1ccc(C(=O)c2cc(Cl)cc(Cl)c2)c(C)c1` [3,5-dichloro-2',4'-dimethylbenzophenone] yielded a melting point of 57 °C.
Work on `COc1ccc(/C=C/c2cccc(OC)c2O)cc1OC` [2-[(E)-2-(3,4-Dimethoxyphenyl)vinyl]-6-methoxyphenol] yielded a melting point of 165 °C.
In the case of `COc1ccc(C(C)=O)c(OC)c1` [2,4-dimethoxyacetophenone], the melting point is reported as 41 °C.
`S=C=Nc1ccccc1I` [2-iodophenyl isothiocyanate] gave a melting point of 38 °C.
Work on `O=c1[nH]c(=O)n([C@H]2C[C@H](O)[C@@H](CO)O2)cc1I` [Idoxuridine] yielded a melting point of 165 °C.
`CCOc1ccc(NC(=O)CN)cc1` [phenocoll] gave a melting point of 101 °C.
Work on `C=Cc1ccccc1` [Styrene] yielded a melting point of -31 °C.
Work on `CCCC(C)(COC(N)=O)COC(N)=O` [Meprobamate] yielded a melting point of 105 °C.
Compound `O=C(O)c1ccc(-c2ccccc2)cc1` [p-phenylbenzoic_acid] has a melting point of 227 °C.
With `COc1ccc2c(c1)C(=O)C(=O)N2` [5-methoxyisatin] the melting point was 201 °C.
With `Clc1ccccc1C(c1ccccc1)(c1ccccc1)n1ccnc1` [Clotrimazole] the melting point was 148 °C.
In the case of `CCCCNC(=O)NCCCC` [N,N'-di-n-butylurea], the melting point is reported as 72 °C.
In the case of `CCCOCCO` [2-Propoxyethanol], the melting point is reported as -75 °C.
`N=c1nc(O)c2ncn(COCCO)c2[nH]1` [Acyclovir] showed a melting point of 255 °C.
Work on `CC(C)(C)c1cc(N)n[nH]1` [3-amino-5-tert-butyl-1h-pyrazole] yielded a melting point of 77 °C.
Compound `CCCCCCCCCCCC` [dodecane] has a melting point of -10 °C.
In the case of `Cc1ccc(S(=O)(=O)O)cc1` [p-toluenesulfonic acid], the melting point is reported as 104 °C.
Work on `CC(=O)Oc1ccc(C(N)=O)cc1` [p-acetoxybenzamide] yielded a melting point of 179 °C.
In the case of `CC(=O)O` [acetic_acid], the melting point is reported as 17 °C.
Compound `O=C(C(=O)c1ccccc1)c1ccccc1` [Benzil] has a melting point of 95 °C.
In the case of `CCCCCCCCCCCCCCCCCCCCCCCCCCCCC` [Nonacosane], the melting point is reported as 66 °C.
With `O=Cc1cc(Cl)cc(Cl)c1` [3,5-Dichlorobenzaldehyde] the melting point was 68 °C.
For `OC[C@@H](O)[C@@H](O)[C@H](O)[C@@H](O)CO` [D-sorbitol], the melting point was 99 °C.
`O=[N+]([O-])c1cccc(CO)c1` [3-nitrobenzyl alcohol] showed a melting point of 31 °C.
In the case of `CCC(C)c1ccccc1` (configuration not stated) [sec-butylbenzene], the melting point is reported as -75 °C.
For `Cc1cnc(s1)NC(=O)C\3=C(/O)c2ccccc2S(=O)(=O)N/3C` [meloxicam], the melting point was 254 °C.
With `CCSC(SCC)C(O)C(O)C(O)C(O)CO` (configuration not stated) [6,6-di(ethylthio)hexane-1,2,3,4,5-pentaol] the melting point was 128 °C.
With `Clc1ccc(C(Cl)(Cl)Cl)cc1` [4-chlorobenzotrichloride] the melting point was 6 °C.
Work on `CCCCCCCCCCCCCCO` [1-tetradecanol] yielded a melting point of 40 °C.
`CC(C)NCC(O)COc1cccc2ccccc12` (configuration not stated) [propranolol] showed a melting point of 129 °C.
`O=C(Nc1ccc([N+](=O)[O-])cc1[N+](=O)[O-])C(C(F)(F)F)C(F)(F)F` showed a melting point of 121 °C.
With `CC(C)CC1=C/C(=C/c2ccc(-c3ccccc3)o2)C(=O)O1` the melting point was 76 °C.
`O=C(Cl)C(=O)Cl` [Ethanedioyl dichloride] gave a melting point of -9 °C.
`CC(=O)c1ccc(O)cc1` [4-hydroxyacetophenone] showed a melting point of 108 °C.
Compound `C=CC(=C)C` [isoprene] has a melting point of -146 °C.
`[2H]OC([2H])([2H])C([2H])(O[2H])C([2H])([2H])O[2H]` [(~2~H_5_)Propane-1,2,3-(~2~H_3_)triol] gave a melting point of 20 °C.
`O=C1CCC(=O)N1C1CCCCC1` [N-(cyclohexyl)succinimide] showed a melting point of 165 °C.
`CC(=O)/C(=N/Nc1cccc(C(F)(F)F)c1)C(=O)C(F)(F)F` showed a melting point of 86 °C.
